In PMC10714400, “Antimicrobial Peptide–Peptoid Hybrids with and without Membrane Disruption” (ACS Infectious Diseases, 2023):
Converted amounts (≈) assume the structure as drawn. Where a SMILES comes first, the peptide text is derived from it. [ ]: non-standard residue; d: D form. Nleu = CC(C)CNCC(=O)O; Nlys = NCCCCNCC(=O)O

Assays:
[1] = test system: HEK293 cells; experiment: Cell viability assay by Alamar blue
Experimental: The data are represented as the mean value ± SD, n = 3. […] (c) Vesicle leakage assay for a selection of compounds. Lipid vesicles made of EYPG or EYPC were suspended in a buffer (10 mM TRIS, 107 mM NaCl, pH 7.4). After 45 s, the indicated compound was added to reach the desired concentration. After 240 s, 30 μL of 1.2% TritonX-100 was added for full fluorescein release. […] See Supporting Information for the full curves, all of the data, and procedures.
HEK293 cells were cultured and maintained in DMEM high glucose (Dulbecco’s modified Eagle medium, Sigma Aldrich) medium supplemented with 10% FBS (Sigma Aldrich) and 1% penicillin/streptomycin. A549 cells were cultured and maintained in RPMI-1640 medium (Sigma Aldrich), supplemented with 10% FBS (Sigma Aldrich) and 1% penicillin/streptomycin. The cells were handled and subcultured according to the manufacturer instructions. Cells were incubated in a humidified incubator at 37 °C in the presence of 5% CO2.
Assays on HEK293, A549 cells were performed as described earlier.[74] […]

[2] = test system: ZEM-1A (clinical MDR P. aeruginosa isolate)
Procedure, shortened: (§1)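 MIC taken visually after MTT staining (20–30 min, RT) as the lowest compound concentration preventing growth, i.e. yellow wells. Inoculum ~5 × 10^5 CFU/well in MH broth, 37 °C static for ca. 18 h; polymyxin B control started at 16 μg/mL.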

[3] = test system: ZEM9A (clinical MDR P. aeruginosa isolate); settings: […] MH at pH 8.5
Procedure, shortened: as §1

[4] = test system: K. pneumoniae NCTC418
Procedure, shortened: (§2)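 MTT added (20–30 min, room temperature); MIC read by eye as lowest concentration inhibiting visible growth (yellow). Polymyxin B positive control from 16 μg/mL.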

[5] = test system: PA14 4.18 (pmrB)
Procedure, shortened: as §1

[6] = test system: PA14 4.13 (phoQ)
Procedure, shortened: as §1

[7] = test system: P. aeruginosa PAO1
Procedure, shortened: as §1

[8] = test system: A. baumannii ATCC19606
Procedure, shortened: as §2

[9] = test system: S. aureus COL (MRSA)
Procedure, shortened: as §1

[10] = test system: PA14 2P4 (pmrB)
Procedure, shortened: as §1

[11] = test system: E. coli W3110
Procedure, shortened: as §1

[12] = test system: K. pneumoniae OXA-48; settings: […] MH at pH 8.5
Procedure, shortened: as §1

[13] = test system: E. cloacae; settings: Table S3; […] MH at pH 8.5
Procedure, shortened: as §1

[14] = Circular dichroism, α-helical content; assay type: physicochemical; settings: 0.1 mg/mL; for CD %α with 5 mM DPC: 10 mM phosphate buffer pH 7.4, 5 mM DPC; for CD %α with 20% TFE: 10 mM phosphate buffer pH 7.4, 20% TFE
[15] = diluted MH ([…] MH) at pH 8.5 (Table 2 footnote b)

With `CC(C)C[C@H](NC(=O)CN(CC(C)C)C(=O)[C@H](CC(C)C)NC(=O)CN(CCCCN)C(=O)[C@H](CC(C)C)NC(=O)CN(CC(C)C)C(=O)[C@H](CCCCN)NC(=O)CN(CC(C)C)C(=O)[C@H](CC(C)C)NC(=O)CN(CCCCN)C(=O)[C@@H](N)CCCCN)C(N)=O` [EB9, KkLlKlLkLlL] (H-K[Nlys]L[Nleu]K[Nleu]L[Nlys]L[Nleu]L-NH2) the “Toxicity against HEK293 cells, no effect detected up to” value [1] was greater than 200 µM, the IC50 ([1]; read-out: Toxicity on HEK293 cells, CSV) was greater than 200 µM and the “MIC P. aeruginosa ZEM-1A, […] MH at pH 8.5” value ([2]; CSV, […] MH at pH 8.5) was 3 ug/mL. For the same compound, the “MIC P. aeruginosa ZEM-1A” value ([2]; Table S3, […] MH at pH 8.5) was 2 to 4 µg/mL, the “MIC ZEM-1A” value [2, 15] was 2 to 4 µg/mL and the “MIC P. aeruginosa ZEM9A, […] MH at pH 8.5” value ([3]; CSV) was 2 ug/mL. The “MIC P. aeruginosa ZEM9A” value ([3]; Table S3) was 2 µg/mL (≈ 1.51 µM), the “MIC K. pneumoniae NCTC418, full MH at pH 7.4” value ([4]; NCTC418, 4 h, pH 7.4) was greater than 32 ug/mL and the “MIC K. pneumoniae NCTC418, full MH at pH 8.5” value ([4]; NCTC418, 4 h, pH 8.5) was greater than 32 ug/mL. The “MIC K. pneumoniae NCTC418 […] 7.4” value ([4]; Table S2, […] MH, pH 7.4) was greater than 32 µg/mL, the “MIC K. pneumoniae NCTC418 […] 8.5” value ([4]; Table S2, […] MH, pH 8.5) was 16 µg/mL (≈ 12.1 µM) and the “MIC K. pneumoniae NCTC418 Full MH 7.4” value ([4]; Table S2, full MH, pH 7.4) was greater than 32 µg/mL. For the same compound, the “MIC K. pneumoniae NCTC418 Full MH 8.5” value ([4]; Table S2, full MH, pH 8.5) was greater than 32 µg/mL, the “MIC P. aeruginosa PA14 4.18, […] MH at pH 8.5” value ([5]; CSV, […] MH at pH 8.5) was 6 ug/mL and the “MIC P. aeruginosa PA14 4.18” value ([5]; Table S3, […] MH at pH 8.5) was 4 to 8 µg/mL. The “MIC PA14 4.18 (pmrB)” value [5, 15] was 4 to 8 µg/mL, the “MIC P. aeruginosa PA14 4.13, […] MH at pH 8.5” value ([6]; CSV, […] MH at pH 8.5) was 2 ug/mL and the “MIC PA14 4.13 (phoQ)” value [6, 15] was 2 µg/mL (≈ 1.51 µM). For the same compound, the “Antibacterial activity as a function of NaCl concentration” value ([7]; P. aeruginosa PAO1, […] MH at pH 8.5, up to 300 mM NaCl) was “strongly reduced”, the “MIC P. aeruginosa PAO1, full MH at pH 7.4” value ([7]; PAO1, 4 h, pH 7.4) was 32 ug/mL and the “MIC P. aeruginosa PAO1 […] 7.4” value ([7]; Table S2, […] MH, pH 7.4) was 4 µg/mL (≈ 3.03 µM). The “MIC P. aeruginosa PAO1 […] 8.5” value ([7]; Table S2, […] MH, pH 8.5) was 2 µg/mL (≈ 1.51 µM), the “MIC P. aeruginosa PAO1 Full MH 7.4” value ([7]; Table S2, full MH, pH 7.4) was 32 µg/mL (≈ 24.2 µM) and the “MIC P. aeruginosa PAO1 Full MH 8.5” value ([7]; Table S2, full MH, pH 8.5) was greater than 32 µg/mL. For the same compound, the “MIC A. baumannii ATCC19606, full MH at pH 7.4” value ([8]; ATCC19606, 4 h, pH 7.4) was greater than 32 ug/mL, the “MIC A. baumannii ATCC19606, full MH at pH 8.5” value ([8]; ATCC19606, 4 h, pH 8.5) was greater than 32 ug/mL and the “MIC A. baumannii ATCC19606 […] 7.4” value ([8]; Table S2, […] MH, pH 7.4) was 16 µg/mL (≈ 12.1 µM). The “MIC A. baumannii ATCC19606 […] 8.5” value ([8]; Table S2, […] MH, pH 8.5) was 8 µg/mL (≈ 6.05 µM), the “MIC A. baumannii ATCC19606 Full MH 7.4” value ([8]; Table S2, full MH, pH 7.4) was greater than 32 µg/mL and the “MIC A. baumannii ATCC19606 Full MH 8.5” value ([8]; Table S2, full MH, pH 8.5) was greater than 32 µg/mL. For the same compound, the “MIC S. aureus COL (MRSA), full MH at pH 7.4” value ([9]; COL, 4 h, pH 7.4) was greater than 32 ug/mL, the “MIC S. aureus COL (MRSA), full MH at pH 8.5” value ([9]; COL, 4 h, pH 8.5) was greater than 32 ug/mL and the “MIC S. aureus COL (MRSA) […] 7.4” value ([9]; Table S2, […] MH, pH 7.4) was 32 µg/mL (≈ 24.2 µM). For the same compound, the “MIC S. aureus COL (MRSA) Full MH 7.4” value ([9]; Table S2, full MH, pH 7.4) was greater than 32 µg/mL, the “MIC S. aureus COL (MRSA) Full MH 8.5” value ([9]; Table S2, full MH, pH 8.5) was greater than 32 µg/mL and the “MIC P. aeruginosa PA14 2P4, […] MH at pH 8.5” value ([10]; CSV, […] MH at pH 8.5) was 4 ug/mL. The “MIC PA14 2P4 (pmrB)” value [10, 15] was 4 µg/mL (≈ 3.03 µM), the “MIC E. coli W3110, […] MH at pH 7.4” value ([11]; CSV, […] MH at pH 7.4) was 2 ug/mL and the “MIC E. coli W3110, […] MH at pH 8.5” value ([11]; CSV, […] MH at pH 8.5) was 2 ug/mL. For the same compound, the “MIC E. coli W3110, full MH at pH 7.4” value ([11]; CSV, full MH at pH 7.4) was 16 ug/mL, the “Antibacterial activity as a function of NaCl concentration” value ([11]; E. coli W3110, […] MH at pH 8.5, up to 300 mM NaCl) was “strongly reduced” and the “MIC E. coli W3110 […] 7.4” value ([11]; Table S2, […] MH, pH 7.4) was 2 µg/mL (≈ 1.51 µM). The “MIC E. coli W3110 […] 8.5” value ([11]; Table S2, […] MH, pH 8.5) was 2 µg/mL (≈ 1.51 µM), the “MIC E. coli W3110 Full MH 7.4” value ([11]; Table S2, full MH, pH 7.4) was 16 µg/mL (≈ 12.1 µM) and the “MIC E. coli W3110 Full MH 8.5” value ([11]; Table S2, full MH, pH 8.5) was greater than 32 µg/mL. The “MIC K. pneumoniae OXA-48, […] MH at pH 8.5” value ([12]; CSV) was 32 ug/mL, the “MIC K. pneumoniae OXA-48” value ([12]; Table S3) was 32 µg/mL (≈ 24.2 µM) and the “MIC E. cloacae” value [13] was 16 µg/mL (≈ 12.1 µM). The “CD %α with 5 mM DPC” value ([14]; DichroWeb, Contin-LL) was 11%, the “CD %α with 20% TFE” value ([14]; DichroWeb, Contin-LL) was 13% and the “CD %α with 5 mM DPC” value ([14]; Table S2) was 11%. For the same compound, the “CD %α with 20% TFE” value ([14]; Table S2) was 13%.
